Data taken from PubChem BioAssay (NCI).
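Where inhibition never reached the appropriate level, the endpoint shown equals the highest concentration tested. Otherwise, values were interpolated linearly from a five-concentration, 48-hour dose response in 96-well plates. At the TGI there is no net growth.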

Experiments:
Test in all cases: DTP human tumour cell line panel, 48 h
UO-31 renal = system: UO-31 renal
KM20L2 colon = system: KM20L2 colon
COLO 205 colon = system: COLO 205 colon
SK-MEL-28 melanoma = system: SK-MEL-28 melanoma
NCI-H23 lung = system: NCI-H23 lung
LOX IMVI melanoma = system: LOX IMVI melanoma
SF-295 CNS = system: SF-295 CNS
EKVX NSCLC = system: EKVX NSCLC
DMS 114 small cell lung = system: DMS 114 small cell lung
U251 CNS = system: U251 CNS
A498 renal = system: A498 renal
OVCAR-3 ovarian = system: OVCAR-3 ovarian
HCT-116 colon = system: HCT-116 colon
M19-MEL melanoma = system: M19-MEL melanoma
OVCAR-5 ovarian = system: OVCAR-5 ovarian
HT29 colon = system: HT29 colon
NCI-H460 lung = system: NCI-H460 lung
HOP-62 NSCLC = system: HOP-62 NSCLC
HCT-15 colon = system: HCT-15 colon
SNB-19 CNS = system: SNB-19 CNS
CAKI-1 renal = system: CAKI-1 renal
OVCAR-4 ovarian = system: OVCAR-4 ovarian
SK-MEL-5 melanoma = system: SK-MEL-5 melanoma
A549 NSCLC = system: A549 NSCLC
NCI-H226 lung = system: NCI-H226 lung
SF-268 CNS = system: SF-268 CNS
DMS 273 small cell lung = system: DMS 273 small cell lung
HOP-92 NSCLC = system: HOP-92 NSCLC
SR leukemia = system: SR leukemia
KM12 colon = system: KM12 colon
MOLT-4 leukemia = system: MOLT-4 leukemia
SNB-75 CNS = system: SNB-75 CNS
TK-10 renal = system: TK-10 renal
HCC-2998 colon = system: HCC-2998 colon
M14 melanoma = system: M14 melanoma
HL-60(TB) leukemia = system: HL-60(TB) leukemia
SW-620 colon = system: SW-620 colon
786-0 renal = system: 786-0 renal
NCI-H522 lung = system: NCI-H522 lung
RXF 393 renal = system: RXF 393 renal
LXFL 529 NSCLC = system: LXFL 529 NSCLC
IGROV1 ovarian = system: IGROV1 ovarian
RPMI-8226 leukemia = system: RPMI-8226 leukemia
SF-539 CNS = system: SF-539 CNS
K-562 leukemia = system: K-562 leukemia
SNB-78 CNS = system: SNB-78 CNS
DLD-1 colon = system: DLD-1 colon
SK-MEL-2 melanoma = system: SK-MEL-2 melanoma
ACHN renal = system: ACHN renal
SK-OV-3 ovarian = system: SK-OV-3 ovarian
MALME-3M melanoma = system: MALME-3M melanoma
XF 498 CNS = system: XF 498 CNS
SN12C renal = system: SN12C renal
CCRF-CEM leukemia = system: CCRF-CEM leukemia
MDA-MB-435 = system: MDA-MB-435
UACC-62 melanoma = system: UACC-62 melanoma
MDA-N = system: MDA-N
HS 578T breast = system: HS 578T breast
BT-549 breast = system: BT-549 breast
MDA-MB-231 breast = system: MDA-MB-231 breast
MCF7 breast = system: MCF7 breast
NCI/ADR-RES ovarian = system: NCI/ADR-RES ovarian
UACC-257 melanoma = system: UACC-257 melanoma
T-47D breast = system: T-47D breast
PC-3 prostate = system: PC-3 prostate
OVCAR-8 ovarian = system: OVCAR-8 ovarian
DU-145 prostate = system: DU-145 prostate

## O=c1[nH]n2c(=O)cc[nH]c2c1-c1nnns1
UO-31 renal
  TGI: > 100 µM
KM20L2 colon
  TGI: > 100 µM
COLO 205 colon
  TGI: > 100 µM
SK-MEL-28 melanoma
  TGI: > 100 µM
NCI-H23 lung
  TGI: > 100 µM
LOX IMVI melanoma
  TGI: > 100 µM
SF-295 CNS
  TGI: > 100 µM
EKVX NSCLC
  TGI: > 100 µM
DMS 114 small cell lung
  TGI: > 100 µM
U251 CNS
  TGI: > 100 µM
A498 renal
  TGI: > 100 µM
OVCAR-3 ovarian
  TGI: > 100 µM
HCT-116 colon
  TGI: > 100 µM
M19-MEL melanoma
  TGI: > 100 µM
OVCAR-5 ovarian
  TGI: > 100 µM
HT29 colon
  TGI: > 100 µM
NCI-H460 lung
  TGI: > 100 µM
HOP-62 NSCLC
  TGI: > 100 µM
HCT-15 colon
  TGI: > 100 µM
SNB-19 CNS
  TGI: > 100 µM
CAKI-1 renal
  TGI: > 100 µM
OVCAR-4 ovarian
  TGI: > 100 µM
SK-MEL-5 melanoma
  TGI: > 100 µM
A549 NSCLC
  TGI: > 100 µM
NCI-H226 lung
  TGI: > 100 µM
SF-268 CNS
  TGI: > 100 µM
DMS 273 small cell lung
  TGI: > 100 µM
HOP-92 NSCLC
  TGI: > 100 µM
SR leukemia
  TGI: > 100 µM
KM12 colon
  TGI: > 100 µM
MOLT-4 leukemia
  TGI: > 100 µM
SNB-75 CNS
  TGI: > 100 µM
TK-10 renal
  TGI: > 100 µM
HCC-2998 colon
  TGI: > 100 µM
M14 melanoma
  TGI: > 100 µM
HL-60(TB) leukemia
  TGI: > 100 µM
SW-620 colon
  TGI: > 100 µM
786-0 renal
  TGI: > 100 µM
NCI-H522 lung
  TGI: > 100 µM
RXF 393 renal
  TGI: > 100 µM
LXFL 529 NSCLC
  TGI: > 100 µM
IGROV1 ovarian
  TGI: > 100 µM
RPMI-8226 leukemia
  TGI: > 100 µM
SF-539 CNS
  TGI: > 100 µM
K-562 leukemia
  TGI: > 100 µM
SNB-78 CNS
  TGI: > 100 µM
DLD-1 colon
  TGI: > 100 µM
SK-MEL-2 melanoma
  TGI: > 100 µM
ACHN renal
  TGI: > 100 µM
SK-OV-3 ovarian
  TGI: > 100 µM
MALME-3M melanoma
  TGI: > 100 µM
XF 498 CNS
  TGI: > 100 µM
SN12C renal
  TGI: > 100 µM
CCRF-CEM leukemia
  TGI: > 100 µM

## O=c1nc(N2CCN(c3ccccc3)CC2)ccn1C1OC(CO)C(O)C1O (configuration not stated)
UO-31 renal
  TGI: > 100 µM
COLO 205 colon
  TGI: > 100 µM
SK-MEL-28 melanoma
  TGI: > 100 µM
NCI-H23 lung
  TGI: > 100 µM
LOX IMVI melanoma
  TGI: > 100 µM
SF-295 CNS
  TGI: > 100 µM
EKVX NSCLC
  TGI: > 100 µM
MDA-MB-435
  TGI: > 100 µM
U251 CNS
  TGI: > 100 µM
UACC-62 melanoma
  TGI: > 100 µM
A498 renal
  TGI: > 100 µM
OVCAR-3 ovarian
  TGI: > 100 µM
MDA-N
  TGI: > 100 µM
HCT-116 colon
  TGI: > 100 µM
OVCAR-5 ovarian
  TGI: > 100 µM
HT29 colon
  TGI: > 100 µM
NCI-H460 lung
  TGI: > 100 µM
HOP-62 NSCLC
  TGI: > 100 µM
HCT-15 colon
  TGI: > 100 µM
SNB-19 CNS
  TGI: > 100 µM
CAKI-1 renal
  TGI: > 100 µM
HS 578T breast
  TGI: > 100 µM
OVCAR-4 ovarian
  TGI: > 100 µM
SK-MEL-5 melanoma
  TGI: > 100 µM
A549 NSCLC
  TGI: > 100 µM
NCI-H226 lung
  TGI: > 100 µM
SF-268 CNS
  TGI: > 100 µM
BT-549 breast
  TGI: > 100 µM
MDA-MB-231 breast
  TGI: > 100 µM
MCF7 breast
  TGI: > 100 µM
HOP-92 NSCLC
  TGI: > 100 µM
SR leukemia
  TGI: > 100 µM
KM12 colon
  TGI: > 100 µM
MOLT-4 leukemia
  TGI: > 100 µM
NCI/ADR-RES ovarian
  TGI: > 100 µM
TK-10 renal
  TGI: > 100 µM
HCC-2998 colon
  TGI: > 100 µM
UACC-257 melanoma
  TGI: > 100 µM
M14 melanoma
  TGI: > 100 µM
HL-60(TB) leukemia
  TGI: 63.5 µM
SW-620 colon
  TGI: > 100 µM
T-47D breast
  TGI: 65.6 µM
786-0 renal
  TGI: > 100 µM
NCI-H522 lung
  TGI: > 100 µM
RXF 393 renal
  TGI: > 100 µM
IGROV1 ovarian
  TGI: > 100 µM
RPMI-8226 leukemia
  TGI: > 100 µM
SF-539 CNS
  TGI: > 100 µM
PC-3 prostate
  TGI: > 100 µM
K-562 leukemia
  TGI: > 100 µM
SK-MEL-2 melanoma
  TGI: > 100 µM
OVCAR-8 ovarian
  TGI: > 100 µM
ACHN renal
  TGI: > 100 µM
DU-145 prostate
  TGI: > 100 µM
SK-OV-3 ovarian
  TGI: > 100 µM
MALME-3M melanoma
  TGI: > 100 µM
SN12C renal
  TGI: > 100 µM
CCRF-CEM leukemia
  TGI: > 100 µM
